Source: patent US6768007B2, “Substituted 3′,4′-di-O-camphanoyl-(+)-cis-khellactone analogs, compositions thereof, and methods for using thereof” (Panacos Pharmaceuticals, Inc., priority 2001, dated 2004)

Legend:
[1] = set-up: species or system rats; conditions: rat, in vivo
Experimental: Studies of the disposition of compound 11 ((3′R,4′R)-3′,4′-di-O-(S)-(−)-camphanoyl-3-hydroxymethyl-4-methyl-(+)-cis-khellactone) and 4-methyl-DCK ((3′R,4′R)-3′,4′-di-O-(S)-(−)-camphanoyl-4-methyl-(+)-cis-khellactone) were conducted in rats. 4-Methyl-DCK can be prepared, for example, as described in U.S. Pat. No. 5,847,165. The rats ordered from Charles River with jugular catheters in place were allowed to acclimate for one to two days prior to use. The venous catheter was kept patent by flushing daily with heparin solution. […]
Reversed phase HPLC was conducted with an ODS, 5 μM particle size, 150×10 mm Axxiom column (Thompson Instruments, Chantilly, Va.) using 55% acetonitrile and water as the mobile phase with 25 mM acetic acid buffer at 1.5 mL/min. Detection was carried out at 320 nm (λmax) for UV detection and at an excitation wavelength of 320 nm. The equipment for HPLC was an HP 1100 system with UV and quantitative analysis was performed using the HP Chemstation. […]
Weighed amounts (approximately 7-8 mg) of 4-methyl-DCK were suspended in 1 mL of 10% Tween 80/water, then administered to two rats (250-300 g) by oral gavage using a feeding needle to provide an oral dose of 25 mg/kg. Blood samples (0.3 mL) were collected at 0, 0.25, 0.50, 0.75, 1.0, 1.5, 2, 4, 8, and 23 hours following the oral dosing. Approximately 0.01 mL of heparin was added to each sample. The samples were then centrifuged to collect 0.10 mL of plasma. The plasma samples were frozen at −20° C. prior to analysis. The samples were thawed and analyzed by reversed phase HPLC within two weeks of collection.
Reversed phase HPLC was conducted with an ODS, 5 μM particle size, 150×10 mm Axxiom column (Thompson Instruments, Chantilly, Va.) using 60% acetonitrile/0.1% TFA in water as the mobile phase. Detection was carried out at 320 nm (λmax) for UV detection. The equipment for HPLC was an HP 1050 quaternary HPLC pump, an HP 1050 UV detector at 320 nm and range 0.2, an HP 3390 integrator, and a BioRad Model AS-100 autosampler.
Standard curves were prepared by addition of appropriate diluted stock solutions of 4-methyl-DCK to 0.10 mL plasma (pooled human plasma) to provide concentration of zero, and 0.05 to 20 μg/mL in a 13×100 mm culture tube. Internal standard solution (0.025 mL of 0.01 mg/mL DCK) was then added to each tube. The spiked samples were briefly vortexes, then allowed to equilibrate for at least 10 minutes prior to further workup. […]
The HPLC assay was partially validated to have a range of 0.125 to 20 μg/mL in plasma, with a detection limit of 50 ng/mL. Recovery from plasma was determined by spiking 4-methyl-DCK into plasma the same way as was done in the preparation of the standard curve, and preparing samples as described above, but adding DCK as an external standard just prior to injection. […]

[2] = test system: HIV-1 (IIIB isolate); test: Anti-HIV activity in H9 lymphocytes (p24 antigen ELISA); assay type: cell-based; conditions: H-9 lymphocytes; for Anti-HIV Activity EC50: HIV-1 IIIB, p24 ELISA, day 5, average of at least two experiments; for Therapeutic Index (TI = IC50/EC50): ratio of IC50 to EC50
Experimental: (§1) The biological evaluation of HIV-1 inhibition was carried out according to established protocols, (Kashiwada, Y., et al., J. Med. Chem. 39:1016-1017 (1996); Hashimoto, F., et al., Bioorg. & Med. Chem. 5:2133-2143 (1997)). The T cell line, H9, was maintained in continuous culture log-phase growth in complete medium (RPMI 1640 with 10% fetal calf serum supplemented with L-glutamine at 5% CO2 and 37° C.). Test samples were first dissolved in dimethyl sulfoxide at a concentration of 10 mg/ml to generate master stocks with dilutions made into tissue culture media to generate working stocks. The following drug concentrations were used routinely for screening: 50, 5, and 0.5 μg/mL. For agents found to be active, additional dilutions were prepared for subsequent testing so that an accurate EC50 value (defined below) could be determined. As the test samples were being prepared, an aliquot of the H9 cell line was infected with HIV-1 (IIIB isolate) while a second aliquot was mock-infected with complete medium. […] An amount of virus equal to approximately 6.25×10^4 TCID50 was added to the first aliquot of 3.5×10^6H9 cells. The second aliquot received tissue culture medium only, and these mock-infected cells were used for toxicity determinations (IC50 defined below). After a 4 h incubation at 37° C. and 5% CO2, both cell populations were washed three times with fresh medium and then added to the appropriate wells of a 96-well plate containing various concentrations of the test drug or tissue culture medium (positive infected control/negative drug control). In addition, AZT was assayed during each experiment as a positive drug control. The plates were incubated at 37° C. and 5% CO2 for 5 days. Cell-free culture supernatants were collected on Day 5 for use in a p24 antigen-capture ELISA assay to determine virus replication. p24 is the core protein of HIV and therefore is an indirect measure of the amount of virus present in the culture supernatants. Toxicity was determined using a viable dye method (XTT) on mock-infected H9 cells that were treated with test sample, AZT or no drug. If a test sample suppressed viral replication and was toxic to less than 50% of the cells, its effects were reported in the following terms: IC50, the concentration of test sample which was toxic to 50% of the mock-infected H9 cells; EC50, the concentration of the test sample which was able to suppress HIV replication by 50%; and Therapeutic Index (TI), the ratio of IC50 to EC50.
(§2) Compounds of the present invention were assayed for anti-HIV activity according to the following assay procedures. The T cell line, H9, and the promonocytic cell line, U937, were maintained separately in continuous culture with complete medium (RPMI 1640 with 10% fetal calf serum) at 5% CO2 and 37° C. The cell lines were used in experiments only when in the logarithmic phase of growth, whereas uninfected peripheral blood mononuclear cells (PBMCs) were first stimulated with PHA (1 μg/mL) for three days. All cell targets were incubated with HIV-1 (IIIB isolate, 1×10^6 TCID50/mL) for one hour at 37° C. and 5% CO2. The cell lines and PBMCs were washed thoroughly to remove unadsorbed virions and resuspended at 4×10^5 cells/mL in complete medium or complete medium with 10% v/v interleukin 2 (IL-2), respectively. […] aliquots were placed into wells of 96-well tissue culture plates containing an equal volume of test compounds (diluted in the appropriate culture medium). The toxicity of each compound was assessed by determining the viability of compound-exposed uninfected cells after five days at 37° C. and 5% CO2. A p24 antigen ELISA assay was used to determine the level of virus released in the medium of the HIV-infected cultures. The p24 antigen assay used a HIV-1 anti-p24 specific monoclonal antibody as the capture antibody coated onto 96-well plates. […]

[3] = test system: mock-infected H9 cells; test: Cytotoxicity in mock-infected (uninfected) H9 cells; assay type: cell-based
Experimental: as §1, §2

[4] = test system: HIV-1 replication in H9 lymphocyte cells; conditions: background art, cited from earlier work; for EC50: read-out: EC50 against HIV-1 replication

Structure (SMILES)	Anti-HIV Activity EC50 [2]	Therapeutic Index (TI = IC50/EC50) [2]	Cytotoxicity IC50 [3]	EC50 [4]	therapeutic index (TI) [4]	other results
Cc1cc(=O)oc2c3c(ccc12)OC(C)(C)[C@H](OC(=O)[C@@]12CCC(C)(C(=O)O1)C2(C)C)[C@@H]3OC(=O)[C@@]12CCC(C)(C(=O)O1)C2(C)C (relative stereo) [Compound 4-methyl-DCK, (3′R,4′R)-3′,4′-di-O-(S)-(−)-camphanoyl-4-methyl-(+)-cis-khellactone, reference compound]						concentration in plasma after oral administration ([1]; po, 25 mg/kg): less than 50 ng/mL
Cc1c(CO)c(=O)oc2c3c(ccc12)OC(C)(C)[C@H](OC(=O)[C@@]12CCC(C)(C(=O)O1)C2(C)C)[C@@H]3OC(=O)[C@@]12CCC(C)(C(=O)O1)C2(C)C (relative stereo) [Compound 11, (3′R,4′R)-3′,4′-Di-O-(S)-(−)-camphanoyl-3-hydroxymethyl-4-methyl-(+)-cis-khellactone]	0.0161 µg/mL	1,320	21.2 µg/mL			oral bioavailability (Foral) [1]: 15%; clearance ([1]; iv): 83 mL/min/kg; time at which Cmax occurs ([1]; po): 120 to 240 min
CC1(C)Oc2ccc3ccc(=O)oc3c2[C@@H](OC(=O)[C@@]23CCC(C)(C(=O)O2)C3(C)C)[C@H]1OC(=O)[C@@]12CCC(C)(C(=O)O1)C2(C)C (relative stereo) [DCK, 3′,4′-di-O-(S)-(−)-camphanoyl-(3′R,4′R)-(+)-cis-khellactone]				0.256 nM	136,719	
Cc1cn([C@H]2C[C@H](N=[N+]=[N-])[C@@H](CO)O2)c(=O)[nH]c1=O [AZT, reference compound]	0.045 µg/mL	41,667	1875 µg/mL			
CC(=O)O[C@@H]1[C@H](OC(=O)CC(C)C)c2c(ccc3ccc(=O)oc23)OC1(C)C [suksdorfin, (3′R,4′R)-3′-acetoxy-4′-isovaleryloxy-(+)-cis-khellactone]				1300 nM	140	
